Like-named read-outs stand apart in the source and are kept apart here.

Series [1] in a line: Solubility in dioxane (Co), absorption spectrum. It is filed as physicochemical. On the procedure:
(§1) 10 mg of the obtained PTPP derivative was dispersed in 0.50 mL of water and allowed to stand for 3 days to prepare a saturated aqueous solution. The supernatant of the aqueous solution was collected and diluted with methanol. Thereafter, the absorption spectrum was measured and the solubility in water (Cw) was calculated using the molar absorption coefficient of the PTPP derivative in methanol. In a similar manner to the above, the solubility in dioxane (Co) was also calculated.

Series [2] is described as follows: Solubility in water (Cw), saturated aqueous solution, absorption spectrum. It counts as physicochemical. On the procedure: as §1
The test system of series [3] is yeast (Saccharomyces cerevisiae). The experiment in a line: Biocompatibility: concentration of PTPP derivative adsorbed on yeast cells (Cad), microscope absorption spectrophotometry. It is filed as cell-based. The settings on record: 10 μM of PTPP derivative added to a yeast solution (1.0×10^4 cell/mL); Nd = below the detection limit. As for the experimental part:
Subsequently, the biocompatibility of this PTPP derivative was assessed in the following manner. An aqueous solution of this PTPP derivative (0.5 mL, 50 μm) was added to the cell suspension (1.0 mL; ca. 2.5×10^4 cell/mL) of yeast, and then an aqueous solution of agar (1 wt %; 1.0 mL) was added. A portion of the prepared aqueous solution containing the PTPP derivative (10 μm), yeast (Saccharomyces cerevisiae; ca. 1.0×10^4 cell/mL) and agar (0.4 wt %) was placed on a space (1 cm×1 cm) surrounded by a silicone spacer (thickness 50 μm) put on a glass slide, covered with a cover glass. The glass slide was set on the stage of an optical microscope. Thereafter, appropriate bacterial cells were positioned in the center of the field of view, and the Q-band absorption spectrum of the PTPP derivative near 560 nm was measured. Then, the concentration (Cad) of the PTPP derivative adsorbed on the bacterial cells was calculated from absorption spectrophotometry based on the Lambert-Beer law.

The conditions of series [4]: cited from earlier work.
The nature of series [5]: Quantum yield of 1O2 production, near infrared emission at 1,270 nm. Conditions: aqueous PTPP derivative solution (20 μM), laser 558 nm, relative to methylene blue. It is filed as physicochemical. The text has this: When the photosensitizer “Photofrin” that has been practically used in PDT treatment is used, the quantum yield of ^1O2 is 0.53 (J. Photochem. Photobiol. B, 92 (2008), 59-65). In contrast, when the PTPP derivatives prepared in Examples 2, 3, and 4 were used, the quantum yields of ^1O2 were 0.62, 0.69, and 0.73, respectively. This explains that the water-soluble porphyrins of the present invention have high photoexcitation efficiency and can thus be suitably used for PDT. The quantum yields of the ^1O2 production were determined by directly measuring the near infrared emission near 1,270 nm obtained by deactivation of the produced ^1O2.
Specifically, an aqueous PTPP derivative solution (20 μM) was irradiated with a laser beam of 558 nm to excite the PTPP derivative, and the emission spectrum of the produced ^1O2 was measured. The quantum yield of the ^1O2 production was calculated by comparing the emission intensity at 1,270 nm obtained with respect to the aqueous PTPP derivative solution with the emission intensity at 1,270 nm obtained in the same manner as above with respect to methylene blue (quantum yield: 0.52).

Series [6] in a line: Partition from aqueous phase to water-immiscible organic solvent (octanol or chloroform). It counts as physicochemical. Conditions: octanol or chloroform added to the aqueous solution and stirred; derivative promptly moved to the organic phase. As for the experimental part: A water-immiscible organic solvent, such as octanol or chloroform, was added to the aqueous solution of the PTPP derivative (Cw=17.3 mM, Co=0.245 mM) and stirred. This caused the PTPP derivative dissolved in the aqueous phase to promptly move to the organic phase.

Setting [7] is: saturated aqueous solution, allowed to stand for 3 days.

Regarding `CCCCCCCCCCCCCCCCCCOCCOCCOCCOCCO[P-]123(OCCOCCOCCOCCOCCCCCCCCCCCCCCCCCC)n4c5ccc4C(c4ccccc4)=C4C=CC(=[N+]41)C(c1ccccc1)=c1ccc(n12)=C(c1ccccc1)C1=[N+]3C(=C5c2ccccc2)C=C1.Cl` [Example 8], in series [1] (solvent dioxane), the “Solubility Co (solubility in dioxane)” value was “≧25 mM”. Besides, the “Solubility Cw (solubility in water)” value in series [2] (setting [7]) was determined as 7960 µM.
`CCCCCCOCCO[P-]123(OCCOCCCCCC)n4c5ccc4C(c4ccccc4)=C4C=CC(=[N+]41)C(c1ccccc1)=c1ccc(n12)=C(c1ccccc1)C1=[N+]3C(=C5c2ccccc2)C=C1.Cl` [Example 6]: in series [1], the “Solubility Co (solubility in dioxane)” value was 242 µM. For the same compound, the “Solubility Cw (solubility in water)” value in series [2] stood at 1110 µM. Further, in series [3], the “Cad (concentration of PTPP derivative adsorbed on bacterial cell)” value (from here on “Cad”) amounted to 142 mM.
`CN(C)c1ccc2nc3ccc(=[N+](C)C)cc-3sc2c1` [methylene blue]: in series [4] (methylene blue reference standard value), the “quantum yield of 1O2” value is on record as 0.52.
Turning to `CCCCOCCOCCO[P-]123(OCCOCCOCCCC)n4c5ccc4C(c4ccccc4)=C4C=CC(=[N+]41)C(c1ccccc1)=c1ccc(n12)=C(c1ccccc1)C1=[N+]3C(=C5c2ccccc2)C=C1.Cl` [Example 4], in series [1] (solvent dioxane), the “Solubility Co (solubility in dioxane)” value worked out at 293 µM. Also, the “Solubility Cw (solubility in water)” value in series [2] (setting [7]) worked out at 5380 µM. Besides, the “Cad” value in series [3] is given as 74.6 mM. Moreover, in series [5], the “quantum yield of 1O2” value is 0.73.
Take Photofrin: in series [4] (Photofrin, from J. Photochem. Photobiol. B, 92 (2008), 59-65), the “quantum yield of 1O2” value is on record as 0.53.
For `CCOCCOCCO[P-]123(OCCOCCOCC)n4c5ccc4C(c4ccccc4)=C4C=CC(=[N+]41)C(c1ccccc1)=c1ccc(n12)=C(c1ccccc1)C1=[N+]3C(=C5c2ccccc2)C=C1.Cl` [Example 3], the “Solubility Co (solubility in dioxane)” value in series [1] (solvent dioxane) worked out at 169 µM. The “Solubility Cw (solubility in water)” value in series [2] (setting [7]) is 13000 µM. Also, the “Cad” value in series [3] was determined as 27.5 mM. Moreover, in series [5], the “quantum yield of 1O2” value is reported as 0.69.
In the case of `COCCOCCO[P-]123(OCCOCCOC)n4c5ccc4C(c4ccccc4)=C4C=CC(=[N+]41)C(c1ccccc1)=c1ccc(n12)=C(c1ccccc1)C1=[N+]3C(=C5c2ccccc2)C=C1.Cl` [Example 2], the “Solubility Co (solubility in dioxane)” value in series [1] (solvent dioxane) worked out at 140 µM. The “Solubility Cw (solubility in water)” value in series [2] (setting [7]) worked out at 13900 µM. Further, the “Cad” value in series [3] was found to be 17.8 mM. Besides, the “quantum yield of 1O2” value in series [5] is 0.62.
`CCCCCCOCCOCCO[P-]123(OCCOCCOCCCCCC)n4c5ccc4C(c4ccccc4)=C4C=CC(=[N+]41)C(c1ccccc1)=c1ccc(n12)=C(c1ccccc1)C1=[N+]3C(=C5c2ccccc2)C=C1.Cl` [Example 5]: in series [1] (solvent dioxane), the “Solubility Co (solubility in dioxane)” value came to 244 µM. For the same compound, the “Solubility Cw (solubility in water)” value in series [2] (setting [7]) was found to be 2070 µM. Also, the “Cad” value in series [3] was found to be 146 mM.
For `CCCCCCCCCCCCOCCOCCOCCOCCOCCOCCOCCOCCOCCO[P-]123(OCCOCCOCCOCCOCCOCCOCCOCCOCCOCCCCCCCCCCCC)n4c5ccc4C(c4ccccc4)=C4C=CC(=[N+]41)C(c1ccccc1)=c1ccc(n12)=C(c1ccccc1)C1=[N+]3C(=C5c2ccccc2)C=C1.Cl` [Example 7], in series [1] (solvent dioxane), the “Solubility Co (solubility in dioxane)” value was “≧25 mM”. In addition, in series [2] (setting [7]), the “Solubility Cw (solubility in water)” value turned out to be 14460 µM.
In the case of `COCCOCCOCCO[P-]123(OCCOCCOCCOC)n4c5ccc4C(c4ccccc4)=C4C=CC(=[N+]41)C(c1ccccc1)=c1ccc(n12)=C(c1ccccc1)C1=[N+]3C(=C5c2ccccc2)C=C1.Cl` [Example 1], the “Solubility Co (solubility in dioxane)” value in series [1] (solvent dioxane) was found to be 245 µM. Besides, the “Solubility Cw (solubility in water)” value in series [2] (setting [7]) turned out to be 17300 µM. The “partition to the organic phase” value in series [6] is recorded as “high partition coefficient to the organic phase”.

The record behind these values is patent publication US8846904B2, “Water-soluble porphyrin and process for production thereof” (University of Miyazaki, priority 2009, dated 2014).
